Measured values from US20170280722A1, “COMPOSITIONS AND METHODS FOR CONTROL OF SAND FLIES AND OTHER BLOOD SUCKING INSECTS” (GENESIS LABORATORIES, INC., priority 2010, published 2017).
Several values for one entry are separate records, joined by “and”; a condition that tells them apart may be missing. Equal values may be shown once. Entries after “also recorded” stand apart in the source; their conditions may differ.

Columns and labels:
Format in all cases: in vivo
[1] = tested on: P. argentipes 1st instar larvae; experiment: Larval bioassay with feces of insecticide treated R. rattus (feed through)
Description: In the first study, a feed through study comparing diflubenzuron, fipronil, ivermectin, and eprinomectin was conducted on rats (Rattus rattus). Fecal samples were collected after three (3) consecutive days of administration of the trial products. The efficacy of the drugs administered during the blind study underwent testing in larval bioassays with P. argentipes 1st instar larvae. Commercially available chicken feed was mixed with the appropriate concentrations of each insecticide compound and used as is in the trial.
Twelve (12) locally purchased rats (Rattus rattus) of mixed sex were utilized in a small study testing the efficacy of four feed through insecticides. Five treatment groups of two rats each were randomly identified and fed diets consisting of locally available chicken feed treated with one of the following compounds: diflubenzuron (0.048%), fipronil (0.015%), ivermectin (0.025%), and eprinomectin (0.01% and 0.025%). Two rats served as control and were fed only chicken feed. Rats were fed 20 g of their assigned diet daily at the same time, with daily consumption and spillage calculated for a period of three (3) days. Sand fly analyses were conducted simultaneously.
[…] Collected feces were dried at approximately 40° C. in an oven then ground into a fine powder utilizing a pestle and mortar and frozen at −20° C. until larval bioassays were initiated.
Larval bioassay pots were prepared using 48 mm, 100 g round Dibbi jars. Dishes were prepared by burning several small holes into the bottom of the dish with a soldering iron and filling them with a small layer of plaster (¼ to ½ inch depth). Approximately 15-20 holes were punctured into the lids using 24 gauge needles. For simpler mortality counting, pots were quartered and each quadrant numbered using an ultra fine black Sharpie.
For each individual post-treatment bioassays, thirteen (13) dishes were loaded with 10 day old 1st instar P. argentipes larvae; twelve (12) pots were provided with approximately 0.005 g of the treated feces, with two sample pots per treated bandicoot rat, and one overall control sample fed only standard larval diet. See Table 1 for sample/treatment correlations. Larvae were loaded into bioassay pots and provided with their designated treatment sample. Mortality counts of larvae were conducted every 24 hours post-treatment until 100% mortality, or pupation, was reached.

[2] = tested on: larval P. argentipes sand flies; experiment: Larval bioassay with feces of cattle given a single oral dose of fipronil; details: for Days after dosing to attain 100% mortality in sand flies: cattle
Description: (§1) The test substance was given to the cattle orally as a single application. The oral treatment was by hand. Because the oral treatment was delivered in capsule form the dosage was very precise.
(§2) The four dose levels of fipronil for the treatment groups used in this study were as follows: 0.5, 1.0, 2.0 and 4.0 mg/kg. These were weighed with an analytical balance to the nearest 0.01 g and presented in gelatin capsules.
Collection of feces was performed at pre-dosing (day 0) and days 1, 3, 5, 7, 14, 21, and 28 following administration. Feces were sampled using arm length veterinarian sterile glove and about 50 g of feces was placed into individually label plastic jars. Samples were stored in a −20° C. freezer.
Larval bioassay jars were prepared using 48 mm, 100 g round Dibbi jars (Pearlpet, Pearl Polymers LTD., New Delhi, India). Jars were prepared by burning three small holes into the bottom of the container with a soldering iron. A thin layer (approximately 5 mm) of plaster of Paris was cast on the bottom and wetted to ensure humidity and softening of the test diet. To simplify mortality counts, the plaster was quartered, and each quadrant numbered one through four, using an ultra fine black marker. The lids of the jars were punctured with 15-20 small holes using a heated 24-gauge hypodermic needle.
Each bioassay jar was loaded with ten one to two day old first instar P. argentipes larvae. Approximately 5 mg treated feces were sprinkled evenly over the plaster. Larval bioassay samples were maintained in a controlled environment at approximately 24° C. with relative humidity maintained at approximately 80% through daily moistening of paper towels underneath the jars. Any observed mold or mites were removed during each day's observation. Each bioassay group included one control jar with larvae provided standard larval food consisting of rabbit feed, rabbit pellets, and dried chicken blood which were mixed, dried, composted, and crushed. Mortality counts of larvae were conducted every 24 hours post-exposure until 100% mortality or pupation was observed. Larvae were considered dead if no physical response was observed within 15 seconds of light stimulation with a blunt probe.

[3] = tested on: adult sand flies (P. argentipes); experiment: Adult sand fly bioassay on cattle given oral fipronil
Description: as §1, §2
A breeding colony of P. argentipes was established during 2009 and is situated in Patna. The colony contains an average of 10,000 sand flies. Adults and larvae are used routinely for studies and are maintained under controlled temperature and humidity conditions.
Adult sand flies used in this study were transferred to a mud plastered hut built next to the cattle shed. This was to acclimate lab-ready sand flies to natural environmental conditions in which the study was to be conducted. The sand flies were kept in 0.4 m^3 cloth mesh enclosures.
Adult sand fly bioassays were conducted on days 1, 3, 5, 7, 14, 21, and 28 after oral administration of fipronil. […] Sand flies were counted and placed in a sand fly feeding capsule (10 cm diameter×2 cm deep). […]
Two sand fly feeding capsules were used per cow. […] Sand flies were allowed to feed for 60 minutes and were monitored closely throughout the feeding period. […]

[4] = feces of R. rattus day-1 post treatment, 150 ppm

N#Cc1nn(-c2c(Cl)cc(C(F)(F)F)cc2Cl)c(N)c1[S+]([O-])C(F)(F)F (centres unmarked) [fipronil]
Mean ± SEM survival (days) of P. arg larvae post-exposure [1, 4]: 2.25 ± 0.10 days | P. argentipes larvae mortality (%) [1, 4]: 100% | Day of observation by which 100% larval mortality was reached ([1]; feces of R. rattus fed 0.015% in feed): ≤ 3 days | Time to paralysis of larvae after exposure ([1]; larvae exposed to feces of fipronil-treated animals): ≤ 24 h | Speed of mortality and duration of effectiveness compared with the other compounds tested ([1]; larval P. argentipes, rodent feed through trials): quickest mortality and longest lasting effectiveness of all of the compounds tested; also recorded: quickest knockdown and longest lasting efficacy of all of the insecticides examined | Larval mortality ([2]; all dose levels (0.5-4.0 mg/kg), over the 21-day study): 100% | Day by which 100% sand fly mortality was attained ([2]; cattle feces of day 3 post-treatment, dose level not stated): ≤ 4 days | Days after dosing to attain 100% mortality in sand flies ([2]; single oral dose 0.5 mg/kg, feces of day 1 after administration): 5.5 days | Days after dosing to attain 100% mortality in sand flies ([2]; single oral dose 0.5 mg/kg, feces of day 3 after administration): 6.0 days | Days after dosing to attain 100% mortality in sand flies ([2]; single oral dose 0.5 mg/kg, feces of day 5 after administration): 9.5 days | Days after dosing to attain 100% mortality in sand flies ([2]; single oral dose 0.5 mg/kg, feces of day 14 after administration): 17 days | Days after dosing to attain 100% mortality in sand flies ([2]; single oral dose 0.5 mg/kg, feces of day 21 after administration): 15.5 days | Days after dosing to attain 100% mortality in sand flies ([2]; single oral dose 1.0 mg/kg, feces of day 1 after administration): 4.5 days | Days after dosing to attain 100% mortality in sand flies ([2]; single oral dose 1.0 mg/kg, feces of day 3 after administration): 4.0 days | Days after dosing to attain 100% mortality in sand flies ([2]; single oral dose 1.0 mg/kg, feces of day 5 after administration): 9.0 days | Days after dosing to attain 100% mortality in sand flies ([2]; single oral dose 1.0 mg/kg, feces of day 14 after administration): 20 days | Days after dosing to attain 100% mortality in sand flies ([2]; single oral dose 1.0 mg/kg, feces of day 21 after administration): 16.5 days | Days after dosing to attain 100% mortality in sand flies ([2]; single oral dose 2.0 mg/kg, feces of day 1 after administration): 4.0 days | Days after dosing to attain 100% mortality in sand flies ([2]; single oral dose 2.0 mg/kg, feces of day 3 after administration): 4.0 days | Days after dosing to attain 100% mortality in sand flies ([2]; single oral dose 2.0 mg/kg, feces of day 5 after administration): 7.0 days | Days after dosing to attain 100% mortality in sand flies ([2]; single oral dose 2.0 mg/kg, feces of day 14 after administration): 10 days | Days after dosing to attain 100% mortality in sand flies ([2]; single oral dose 2.0 mg/kg, feces of day 21 after administration, 2 mg/kg): 12 days and 12.0 days | Days after dosing to attain 100% mortality in sand flies ([2]; single oral dose 4.0 mg/kg, feces of day 1 after administration): 4.0 days | Days after dosing to attain 100% mortality in sand flies ([2]; single oral dose 4.0 mg/kg, feces of day 3 after administration): 4.0 days | Days after dosing to attain 100% mortality in sand flies ([2]; single oral dose 4.0 mg/kg, feces of day 5 after administration): 6.5 days | Days after dosing to attain 100% mortality in sand flies ([2]; single oral dose 4.0 mg/kg, feces of day 14 after administration): 11 days | Days after dosing to attain 100% mortality in sand flies ([2]; single oral dose 4.0 mg/kg, feces of day 21 after administration, 4 mg/kg): 10 days and 10.0 days | Level of control of adult sand flies as a systemic ([3]; cattle, oral, without having an impact on milk residues): high levels of control were not attainable | Adult sand fly mortality versus dose level ([3]; days 14 and 21 post-treatment, one hour exposure to cattle, 0.5-4.0 mg/kg): mortality increased with dose level
